Laboratory results reported in ChEMBL document CHEMBL4831514, “Novel betulin dicarboxylic acid ester derivatives as potent antiviral agents: Design, synthesis, biological evaluation, structure-activity relationship and in-silico study” (Eur J Med Chem, 2021).
pEC50: −log10 of the molar value. Calls of active or inactive are those of the source. The rule behind the calls is not given here.

Legend:
[1] = system: Vesicular stomatitis virus; test: Antiviral activity against Vesicular stomatitis virus Indiana infected in A549 cells assessed as reduction in virus titer preincubated for 24 hrs followed by viral infection and measured after 72 hrs by microscopic analysis; assay type: functional, organism-based
Human alphaherpesvirus 1 [2] = test: (§1) Antiviral activity against Human herpesvirus 1 MacIntyre infected in A549 cells assessed as reduction in virus titer treated 1 hr post viral infection followed by replacement with fresh medium with compounds and measured after 48 hrs by MTT assay; assay type: functional, organism-based; details: Human alphaherpesvirus 1, MacIntyre
[3] = as §1, with “Selectivity index, ratio of CC50 for cytotoxicity against human A549 cells to EC50 for antiviral” for “Antiviral”, “72” for “48”; assay type: toxicity, cell-based; details: read-out: Selectivity Index
Enterovirus E = test: Antiviral activity against Enterovirus E LCR-4 infected in A549 cells assessed as inhibition of viral adsorption at early stage of replication treated for 1 hr during viral infection followed by replacement with fresh medium and measured after 72 hrs by MTT assay; assay type: functional, organism-based
[4] = (§2) Cytotoxicity against human A549 cells assessed as reduction in cell viability incubated for 48 hrs by MTT assay; assay type: cell-based; details: A549 cells
A549 = test: as §2; assay type: cell-based; details: a549, 48 h
Human alphaherpesvirus 1 [5] = test: Antiviral activity against Human herpesvirus-1 MacIntyre infected in A549 cells assessed as inhibition of viral adsorption at early stage of replication treated for 1 hr during viral infection followed by replacement with fresh medium and measured after 48 hrs by MTT assay; assay type: functional, organism-based
Human alphaherpesvirus 1 [6] = test: Antiviral activity against Human herpesvirus 1 MacIntyre infected in A549 cells assessed as reduction in virus titer preincubated for 24 hrs followed by viral infection and measured after 72 hrs by microscopic analysis; assay type: functional, organism-based
Human adenovirus 5 [7] = test: Antiviral activity against Human adenovirus 5 Adenoid 75 infected in A549 cells assessed as reduction in virus titer preincubated for 24 hrs followed by viral infection and measured after 72 hrs by microscopic analysis; assay type: functional, organism-based
MDCK = test: (§3) Cytotoxicity against MDCK cells assessed as reduction in cell viability incubated for 72 hrs by MTT assay; assay type: cell-based, Canis lupus familiaris; details: dog, mdck, 72 h
Human adenovirus 5 [8] = test: Antiviral activity against Human adenovirus 5 Adenoid 75 infected in A549 cells assessed as inhibition of viral adsorption at early stage of replication treated for 1 hr during viral infection followed by replacement with fresh medium and measured after 72 hrs by MTT assay; assay type: functional, organism-based
Human alphaherpesvirus 1 [9] = test: as §1, with “Potency index, ratio of acyclovir EC50 to test compound EC50 for antiviral” for “Antiviral”; assay type: functional
[10] = as §3; assay type: cell-based, Canis lupus familiaris; details: dog, MDCK cells
[11] = Selectivity index, ratio of CC50 for cytotoxicity against human A549 cells to EC50 for antiviral activity against Enterovirus E LCR-4 infected in A549 cells; assay type: toxicity, cell-based; details: read-out: Selectivity Index

Structure (SMILES) | Activity [1] | pEC50 (Human alphaherpesvirus 1 [2]) | selectivity ratio at 72 h [3] | Activity (Enterovirus E) | CC50 at 48 h [4] [µM] | CC20 (A549) [µM] | Activity (Human alphaherpesvirus 1 [5]) | Activity (Human alphaherpesvirus 1 [6]) | Activity (Human adenovirus 5 [7]) | CC20 (MDCK) [µM] | Activity (Human adenovirus 5 [8]) | Ratio EC50 (Human alphaherpesvirus 1 [9]) | CC50 at 72 h [10] [µM] | selectivity ratio [11]
C=C(C)[C@@H]1CC[C@]2(COC(=O)CCCCCCCCCC(=O)N3CCOCC3)CC[C@]3(C)[C@H](CC[C@@H]4[C@@]5(C)CC[C@H](O)C(C)(C)[C@@H]5CC[C@]43C)[C@@H]12 | inactive | 4.46 | 4.7 | inactive | 164 | 34.77 | inactive | inactive | inactive | 139.08 | inactive | 3 | – | –
C=C(C)[C@@H]1CC[C@]2(COC(=O)CCCC(=O)N3CCCCC3)CC[C@]3(C)[C@H](CC[C@@H]4[C@@]5(C)CC[C@H](O)C(C)(C)[C@@H]5CC[C@]43C)[C@@H]12 | inactive | – | – | inactive | – | 17.12 | inactive | inactive | inactive | 4.25 | inactive | 3 | – | –
C#CC1(NC(=O)/C(C)=C/C(=O)OC[C@]23CC[C@@H](C(=C)C)[C@@H]2[C@H]2CC[C@@H]4[C@@]5(C)CC[C@H](O)C(C)(C)[C@@H]5CC[C@@]4(C)[C@]2(C)CC3)CCCCC1 | inactive | – | – | inactive | – | 54.47 | inactive | inactive | inactive | 54.47 | inactive | – | 54.5 | –
CCOC(=O)C1=C[C@@H](OC(CC)CC)[C@H](NC(C)=O)[C@@H](N)C1 [OSELTAMIVIR] | – | – | – | – | – | – | – | – | – | 320.51 | – | – | 7870 | –
C=C(C)[C@@H]1CC[C@]2(COC(=O)CCCC(=O)O)CC[C@]3(C)[C@H](CC[C@@H]4[C@@]5(C)CC[C@H](O)C(C)(C)[C@@H]5CC[C@]43C)[C@@H]12 | inactive | 4.65 | 3.6 | inactive | 80.8 | 22.44 | inactive | inactive | inactive | 11.22 | inactive | 3 | – | –
C=C(C)[C@@H]1CC[C@]2(COC(=O)/C=C(\C)C(=O)N3CCCCC3)CC[C@]3(C)[C@H](CC[C@@H]4[C@@]5(C)CC[C@H](O)C(C)(C)[C@@H]5CC[C@]43C)[C@@H]12 | inactive | 4.76 | 4 | inactive | 68.7 | 34.34 | inactive | inactive | inactive | 4.26 | inactive | 3 | – | –
C=C(C)[C@@H]1CC[C@]2(COC(=O)c3ccccc3C(=O)N3CCSCC3)CC[C@]3(C)[C@H](CC[C@@H]4[C@@]5(C)CC[C@H](O)C(C)(C)[C@@H]5CC[C@]43C)[C@@H]12 | inactive | 4.53 | 11.8 | inactive | 350 | 58.9 | inactive | inactive | inactive | 7.3 | inactive | 3 | – | –
C=C(C)[C@@H]1CC[C@]2(COC(=O)c3ccccc3C(=O)N3CCCCC3)CC[C@]3(C)[C@H](CC[C@H]4C3(C)CC[C@H]3C(C)(C)[C@@H](O)CC[C@@]34C)[C@@H]12 (single isomer, unassigned) | inactive | 4.49 | 2 | inactive | 65.4 | 65.45 | inactive | inactive | inactive | 32.72 | inactive | 3 | – | –
C#CCNC(=O)CCCC(=O)OC[C@]12CC[C@@H](C(=C)C)[C@@H]1[C@H]1CC[C@@H]3[C@@]4(C)CC[C@H](O)C(C)(C)[C@@H]4CC[C@@]3(C)[C@]1(C)CC2 | inactive | – | – | inactive | – | 42.09 | inactive | inactive | inactive | 1.18 | inactive | – | – | –
C=C(C)[C@@H]1CC[C@]2(COC(=O)CCCC(=O)N3CCOCC3)CC[C@]3(C)[C@H](CC[C@@H]4[C@@]5(C)CC[C@H](O)C(C)(C)[C@@H]5CC[C@]43C)[C@@H]12 | inactive | 4.72 | 8 | inactive | 151 | 18.85 | inactive | inactive | inactive | 18.85 | inactive | 3 | – | –
C#CCNC(=O)c1cccc(C(=O)OC[C@]23CC[C@@H](C(=C)C)[C@@H]2[C@H]2CC[C@@H]4C5(C)CC[C@H](O)C(C)(C)[C@@H]5CC[C@@]4(C)[C@]2(C)CC3)c1 (single isomer, unassigned) | inactive | – | – | inactive | – | 159.24 | inactive | inactive | inactive | 159.24 | inactive | – | – | –
C#CCNC(=O)/C(C)=C/C(=O)OC[C@]12CC[C@@H](C(=C)C)[C@@H]1[C@H]1CC[C@@H]3[C@@]4(C)CC[C@H](O)C(C)(C)[C@@H]4CC[C@@]3(C)[C@]1(C)CC2 | inactive | – | – | inactive | – | 10.56 | inactive | inactive | inactive | 84.46 | inactive | – | – | –
Nc1nc2c(ncn2COCCO)c(=O)[nH]1 [ACYCLOVIR] | – | 3.95 | 14 | inactive | 1560 | 196.08 | inactive | – | – | – | inactive | – | – | 7
C=C(C)[C@@H]1CC[C@]2(CO)CC[C@]3(C)[C@H](CC[C@@H]4[C@@]5(C)CC[C@H](O)C(C)(C)[C@@H]5CC[C@]43C)[C@@H]12 [BETULIN] | inactive | – | – | inactive | – | 28.22 | inactive | inactive | inactive | 28.22 | inactive | – | – | –
C=C(C)[C@@H]1CC[C@]2(COC(=O)c3ccccc3C(=O)N3CCOCC3)CC[C@]3(C)[C@H](CC[C@@H]4[C@@]5(C)CC[C@H](O)C(C)(C)[C@@H]5CC[C@]43C)[C@@H]12 | inactive | 4.44 | 4 | inactive | 144 | 35.87 | inactive | inactive | inactive | 143.47 | inactive | 3 | – | –
C=C(C)[C@@H]1CC[C@]2(COC(=O)CCC(=O)N3CCSCC3)CC[C@]3(C)[C@H](CC[C@@H]4[C@@]5(C)CC[C@H](O)C(C)(C)[C@@H]5CC[C@]43C)[C@@H]12 | inactive | – | – | inactive | – | 62.42 | inactive | inactive | inactive | 124.84 | inactive | – | – | –
C=C(C)[C@@H]1CC[C@]2(COC(=O)CSCC(=O)O)CC[C@]3(C)[C@H](CC[C@@H]4[C@@]5(C)CC[C@H](O)C(C)(C)[C@@H]5CC[C@]43C)[C@@H]12 | inactive | – | – | inactive | – | 21.08 | inactive | inactive | inactive | 21.08 | inactive | – | 42.2 | –
C#CC1(NC(=O)CCCCCCCCCC(=O)OC[C@]23CC[C@@H](C(=C)C)[C@@H]2[C@H]2CCC4[C@@]5(C)CC[C@H](O)C(C)(C)[C@@H]5CC[C@@]4(C)[C@]2(C)CC3)CCCCC1 (single isomer, unassigned) | inactive | – | – | inactive | – | 102.46 | inactive | inactive | inactive | 102.46 | inactive | – | – | –
